Assay results reported in US6586442B2, “Benzofurane derivatives, their preparation process, their use as medicaments and the pharmaceutical compositions containing them” (priority 1999, dated 2003).
Read-outs that look alike come from different tables or passages of the source.

Target: human αvβ3 receptor (Homo sapiens, UniProt P05106+P06756)
Assay: Kistrin/Vitronectin Receptor (αvβ3) ELISA test
Type: binding
Experimental: Kistrin/Vitronectin Receptor (αvβ3) ELISA Test Protocol:
96-well MaxiSorp plates are coated overnight at […] with 100 μl of Kistrin at 1 μg/ml (dilution in coating buffer: 0.05M (carbonate)/NaOH pH 9.6. The next day, the wells are emptied and the ligands (kistrin) are then fixed (fixation buffers: PBS containing 0.5% BSA (pH=7.4)) for 1 hour at ambient temperature under gentle agitation of 125 rpm. The wells are washed six times (washing buffer: PBS containing 0.05% Tween 20 (pH 7.7) then the following is added per well and in this order:
40 μl of incubation buffer
10 μl of the dilution of the product to be tested (the products are diluted in a 50:50 DMSO/water mixture)
50 μl of human αvβ3 receptor (cf Pytel et al. Methods Enzymol. (1987) 144 (Dilution in incubation buffer, adapted according to the batch of receptor and according to the ligand). The ligand, the αvβ3 receptor and the products to be studied are incubated for 3 hours at ambient temperature with gentle agitation of 125 rpm.
The wells are again washed six times, then incubated for 2 hours at ambient temperature with gentle agitation of 125 rpm, in the presence of 100 μl of anti-receptor antibody coupled to a peroxidase (The 4B12-HRP antibody is diluted in incubation buffer (50 mM TRIS pH 7.4; 0.5% BSA; 0.05% Tween 20; 1 mM MnCl2; 50 μM CaCl2; 50 μM MgCl2; 100 mM NaCl). The dilution is to be adapted according to the batch of receptor.
The wells are then washed six times before measurement of the ligand-receptor bond is carried out using a peroxidase developer kit (TBM Microwell Peroxidase Substrate System Kirkegaard; Ref cat 50-76-00).
This kit contains a flask A of substrate (3,3′,5,5′-tetramethylebenzidine at 0.4 g/l) and a flask B (H2O2 to 0.02% in Citrate/Citric acid). Extemporaneously, one volume of A is mixed with one volume of B, then the reaction mixture is distributed at a rate of 100 μl/wells.
The enzymatic reaction develops between 6 to 10 minutes for Kistrin/αvβ3 then its development is stopped by the addition of 100 μl of 1M phosphoric acid. The optical density is determined at 450 nm.
Expression of the results
The following curve is plotted: the bond percentage as a function of the logarithm of each concentration of the tested product.
For each product IC50 is determined according to the following formula: IC50=(B0+Bmin)/2
B0=Maximum bond in the absence of any product
Bmin=Minimum bond in the presence of the highest concentration of the product.

[1] = Kistrin-coated plates, human αvβ3 receptor, 3 hours at ambient temperature, OD 450 nm, read-out: K/VnR IC50

Sequence of human αvβ3 receptor (P06756 31-889 limits assumed): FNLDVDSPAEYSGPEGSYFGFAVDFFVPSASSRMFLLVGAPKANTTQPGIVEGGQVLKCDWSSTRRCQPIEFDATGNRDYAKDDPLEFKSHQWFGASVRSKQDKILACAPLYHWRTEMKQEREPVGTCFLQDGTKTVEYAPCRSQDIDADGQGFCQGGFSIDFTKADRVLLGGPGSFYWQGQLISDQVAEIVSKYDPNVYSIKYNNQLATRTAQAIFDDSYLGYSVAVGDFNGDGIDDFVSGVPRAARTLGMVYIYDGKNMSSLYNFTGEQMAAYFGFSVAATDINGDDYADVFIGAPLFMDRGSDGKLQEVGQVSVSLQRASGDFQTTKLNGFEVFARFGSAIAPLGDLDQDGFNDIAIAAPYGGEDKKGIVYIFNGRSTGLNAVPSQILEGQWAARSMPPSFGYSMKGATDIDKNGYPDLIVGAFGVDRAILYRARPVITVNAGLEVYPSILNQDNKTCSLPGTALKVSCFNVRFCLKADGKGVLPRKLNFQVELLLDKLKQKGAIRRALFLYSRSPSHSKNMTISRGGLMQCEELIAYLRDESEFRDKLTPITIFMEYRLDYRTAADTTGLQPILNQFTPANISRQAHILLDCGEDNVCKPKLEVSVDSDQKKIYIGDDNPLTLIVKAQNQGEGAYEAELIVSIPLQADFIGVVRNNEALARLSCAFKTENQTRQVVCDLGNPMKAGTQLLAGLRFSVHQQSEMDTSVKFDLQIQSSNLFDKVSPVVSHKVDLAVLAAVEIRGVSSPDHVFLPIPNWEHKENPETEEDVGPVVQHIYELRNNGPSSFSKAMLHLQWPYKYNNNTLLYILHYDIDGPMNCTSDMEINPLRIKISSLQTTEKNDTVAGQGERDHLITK
Sequence of human αvβ3 receptor (P06756 891-1048 limits assumed): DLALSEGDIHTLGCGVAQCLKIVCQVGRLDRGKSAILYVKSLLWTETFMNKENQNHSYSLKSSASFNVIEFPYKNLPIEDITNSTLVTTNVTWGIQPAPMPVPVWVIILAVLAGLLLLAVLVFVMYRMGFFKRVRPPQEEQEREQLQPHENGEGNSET
Sequence of human αvβ3 receptor (P05106 27-788): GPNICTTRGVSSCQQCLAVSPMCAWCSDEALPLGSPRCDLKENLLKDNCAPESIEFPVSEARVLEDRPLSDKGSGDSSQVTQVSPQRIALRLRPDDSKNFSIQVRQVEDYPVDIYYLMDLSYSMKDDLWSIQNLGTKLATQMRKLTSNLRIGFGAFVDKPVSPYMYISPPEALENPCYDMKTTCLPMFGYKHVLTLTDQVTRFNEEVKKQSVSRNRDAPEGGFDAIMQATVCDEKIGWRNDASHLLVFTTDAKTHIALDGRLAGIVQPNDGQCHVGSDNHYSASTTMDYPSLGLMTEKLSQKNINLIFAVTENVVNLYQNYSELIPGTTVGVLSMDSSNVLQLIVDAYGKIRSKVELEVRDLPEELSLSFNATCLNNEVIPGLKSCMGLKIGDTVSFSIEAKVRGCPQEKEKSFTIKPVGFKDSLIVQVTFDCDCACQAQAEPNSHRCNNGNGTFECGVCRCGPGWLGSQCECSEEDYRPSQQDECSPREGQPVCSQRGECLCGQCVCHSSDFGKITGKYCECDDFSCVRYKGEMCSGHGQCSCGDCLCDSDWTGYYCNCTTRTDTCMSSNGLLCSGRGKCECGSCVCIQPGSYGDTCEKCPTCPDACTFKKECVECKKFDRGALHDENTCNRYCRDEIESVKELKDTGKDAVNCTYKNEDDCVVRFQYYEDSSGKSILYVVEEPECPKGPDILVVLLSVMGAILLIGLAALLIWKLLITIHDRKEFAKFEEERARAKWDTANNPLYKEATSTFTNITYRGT

SMILES	IC50 [1]	IC50
O=C(CCc1ccc2oc(CC(NC(=O)OCC34CC5CC(CC(C5)C3)C4)C(=O)O)cc2c1)NC1=NCCCN1 (stereo not drawn) [Example 5, Mono(trifluoroacetate) of 5-[3-oxo-3-[(1,4,5,6-tetrahydro-2-pyrimidinyl)amino]propyl]-α-[[[(tricyclo[3.3.1.1^3,7]dec-1-yl)methoxy]carbonyl]amino]-2-benzofuranpropanoic acid]	45 nM	
O=C(CCc1ccc2oc(CC(NS(=O)(=O)NC(=O)OCc3ccccc3)C(=O)O)cc2c1)NC1=NCCCN1 (centres unmarked) [Example 7]	10 nM	
O=C(CCc1ccc2oc(CC(NS(=O)(=O)c3cccc4ccccc34)C(=O)O)cc2c1)NC1=NCCCN1 (stereo not drawn) [Example 13, α-[(1-naphthalenylsulphonyl)amino]-5-[3-oxo-3-[(1,4,5,6-tetrahydro-2-pyrimidinyl)amino]propyl]—2-benzofuranpropanoic acid]	5.5 nM	
O=C(CCc1ccc2oc(CC(NS(=O)(=O)NC(=O)OCC34CC5CC(CC(C5)C3)C4)C(=O)O)cc2c1)NC1=NCCCN1 (stereo not drawn) [Example 6, 5-[3-oxo-3-[(1,4,5,6-tetrahydro-2-pyrimidinyl)amino]-propyl]-α-[[[[[(tricyclo [2.3.1.1^3,7]dec-1-yl)methoxy]-carbonyl]amino]sulphonyl]amino]-2-benzofuranpropanoic acid]	65 nM	
CC(C)OC(=O)C(Cc1cc2cc(CCC(=O)NC3=NCCCN3)ccc2o1)NS(=O)(=O)c1cccc2ccccc12 (centres unmarked) [Example 14]		3700 nM
O=C(CCc1ccc2oc(CC(NC(=O)OCc3ccccc3)C(=O)O)cc2c1)NC1=NCCCN1 (stereo not drawn) [Example 1, 5-[3-oxo-3-[(1,4,5,6-tetrahydro-2-pyrimidinyl)amino)propyl]-α-[[(phenylmethoxy)carbonyl]-amino]-2-benzofuranepropanoic acid]	9 nM	

Continued, in another order:

IC50 [1]	SMILES	IC50
5.7 nM	CCCS(=O)(=O)NC(Cc1cc2cc(CCC(=O)NC3=NCCCN3)ccc2o1)C(=O)O (centres unmarked) [Example 11]	
15 nM	CC(C)(C)c1ccc(S(=O)(=O)NC(Cc2cc3cc(CCC(=O)NC4=NCCCN4)ccc3o2)C(=O)O)cc1 (stereo not drawn) [Example 9, α-[[[4-(1,1-dimethylethyl)phenyl]sulphonyl]amino]-5-(3-oxo-3-[(1,4,5,6-tetrahydro-2-pyrimidinyl)amino]propyl]-2-benzofuranpropanoic acid]	
6.7 nM	CS(=O)(=O)NC(Cc1cc2cc(CCC(=O)NC3=NCCCN3)ccc2o1)C(=O)O (centres unmarked) [Example 12]	
9.1 nM	CC(C)c1ccc(S(=O)(=O)NC(Cc2cc3cc(CCC(=O)NC4=NCCCN4)ccc3o2)C(=O)O)cc1 (stereo not drawn) [Example 10, α-[[[4-(1-methylethyl)phenyl]sulphonyl]amino]-5-(3-oxo-3-[(1,4,5,6-tetrahydro-2-pyrimidinyl)amino]propyl]-2-benzofuranpropanoic acid]	
8.7 nM	O=C(CCc1ccc2oc(CC(NS(=O)(=O)NCc3ccccc3)C(=O)O)cc2c1)NC1=NCCCN1 (centres unmarked) [Example 8, Mono(trifluoroacetate) ofα-[[[(phenylmethyl)-amino]sulphonyl]amino]-5-[3-oxo-3-[(1,4,5,6-tetrahydro-2-pyrimidinyl)amino]propyl]-2-benzofuranpropanoic acid]	
